Consider 32 molecules from patent US11318157B2, “6-6 bicyclic aromatic ring substituted nucleoside analogues for use as PRMT5 inhibitors” (Janssen Pharmaceutica NV, priority 2015, dated 2022).

The target in test [1] is PRMT5 (Homo sapiens, UniProt O14744). Particulars: literature statement; cited from earlier work.
For test [2], the system named is MCL xenograft models. Particulars: multiple MCL xenograft models; cited from earlier work.
In test [3] the target is T1, PRMT5-MEP50 enzyme (Homo sapiens, UniProt O14744).
T1 construct: One virus expresses full length human PRMT5 with Flag-tag at N-terminus; Flag (N); purchased Charles River (Argenta); host or cells: insect cells (Sf9), baculovirus co-infection
Briefly: In vitro assay 1a: high throughput mass spectrometer assay of SAH formation, 10 nM enzyme, 60 min. The format is biochemical. Particulars: averaged values, PRMT5-MEP50, 10 nM enzyme, read-out: pIC50 Assay 1a (converted). An outline of the steps:
(§1)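 Flag-PRMT5/His-MEP50 complex from Sf9 cells, with 1 μM SAM and 0.3 μM full-length histone H2A in pH 8.5 Tris buffer, at 30 °C; 10 nM enzyme for 60 min (1a) or 1.25 nM for 120 min (1b). Formic acid-quenched SAH read by RapidFire MS/MS; 11-point IC50 with Hill fit.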

Test [4] concerns the target T1, PRMT5-MEP50 enzyme. The test can be described thus: In vitro assay 1b: high throughput mass spectrometer assay of SAH formation, 1.25 nM enzyme, 120 min. The format is biochemical. Particulars: averaged values; PRMT5-MEP50, 1.25 nM enzyme, 120 min; read-out: pIC50 Assay 1b (converted). An outline of the steps:
as §1

Test [5] deals with nuclear symmetric Arginine dimethylation in A549 cells. Briefly: PD assay (assay 2): inhibition of nuclear symmetric Arginine dimethylation (SYM10 immunohistochemistry), 48 h. The format is cell-based. Particulars: Homo sapiens. The procedure, abridged:
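Cells seeded at 400/well overnight, then treated 48 h at 37 °C, final DMSO 0.2%. Fixed and stained with SYM10 antibody plus Alexa 488 secondary, Hoechst and CellMask, then imaged on Opera. Normalized to DMSO (high) and 10 μM reference compound (low); averaged pIC50 reported.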

Where [6] appears, read: A549, averaged values, PD assay, A549 cells, symmetric Arginine dimethylation, read-out: pIC50 Assay 2 (converted).
[7] abbreviates: A549, read-out: pIC50 Assay 2 (converted).

Structures are written as SMILES. Where two headings read alike, the source gives them in different places.

T1 sequence (O14744 whole entry): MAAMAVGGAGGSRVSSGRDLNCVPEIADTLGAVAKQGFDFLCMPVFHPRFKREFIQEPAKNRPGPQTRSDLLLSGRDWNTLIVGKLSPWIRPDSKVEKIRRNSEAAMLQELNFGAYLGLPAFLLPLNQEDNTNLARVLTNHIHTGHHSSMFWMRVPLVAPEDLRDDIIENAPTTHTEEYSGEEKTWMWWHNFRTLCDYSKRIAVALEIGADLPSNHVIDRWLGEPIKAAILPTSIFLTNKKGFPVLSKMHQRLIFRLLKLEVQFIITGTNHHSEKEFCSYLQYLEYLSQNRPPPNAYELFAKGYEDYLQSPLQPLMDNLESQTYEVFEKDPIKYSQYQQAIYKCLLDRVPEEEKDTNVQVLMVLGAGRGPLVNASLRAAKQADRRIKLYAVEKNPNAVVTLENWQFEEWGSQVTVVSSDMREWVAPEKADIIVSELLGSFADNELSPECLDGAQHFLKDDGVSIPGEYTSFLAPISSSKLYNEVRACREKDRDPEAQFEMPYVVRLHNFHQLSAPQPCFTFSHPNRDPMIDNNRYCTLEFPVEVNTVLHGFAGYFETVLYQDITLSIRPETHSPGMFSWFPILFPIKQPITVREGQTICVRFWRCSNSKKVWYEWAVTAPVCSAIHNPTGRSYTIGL
T1 sequence (Q9BQA1 whole entry partner): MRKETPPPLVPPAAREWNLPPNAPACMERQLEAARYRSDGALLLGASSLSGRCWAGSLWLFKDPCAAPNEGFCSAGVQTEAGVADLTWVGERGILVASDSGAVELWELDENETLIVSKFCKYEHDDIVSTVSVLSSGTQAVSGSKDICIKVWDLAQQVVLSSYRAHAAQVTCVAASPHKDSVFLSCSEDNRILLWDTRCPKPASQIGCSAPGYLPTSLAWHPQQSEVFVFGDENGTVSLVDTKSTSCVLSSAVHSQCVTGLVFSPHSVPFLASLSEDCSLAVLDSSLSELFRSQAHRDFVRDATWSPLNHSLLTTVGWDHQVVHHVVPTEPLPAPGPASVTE
PRMT5, sequence (O14744 whole entry, species assumed): as the sequence (O14744 whole entry) above
PRMT5, sequence (Q9BQA1 whole entry partner, species assumed): as the sequence (Q9BQA1 whole entry partner) above

Take `O=C(NC[C@H](O)CN1CCc2ccccc2C1)c1cc(NC2COC2)ncn1` [EPZ015666]: the “potency as PRMT5 inhibitor” value in test [1] is given as “sub-nanomolar”. Further, in test [2], the anti-tumour activity entry is given as “anti-tumour activity”.

In the case of `CCc1cnc2cc(OC[C@H]3O[C@@H](n4ccc5c(N)ncnc54)[C@H](O)[C@@H]3O)ccc2c1` [Compound 213], the IC50 in test [3] is 7.94 nM; in test [4] it was 15.8 nM; in test [5] (setting [6]), 63.1 nM.

`Nc1ncnc2c1ccn2[C@@H]1C[C@H](CCc2ccc3ccc(NC4CCCC4)nc3c2)[C@@H](O)[C@H]1O` [Compound 146]: the IC50 in test [3] is 0.251 nM; in test [4], 2.51 nM; in test [5] (setting [6]), less than 1.17 nM.

As for `COc1ccnc2cc(OC[C@H]3O[C@@H](n4ccc5c(N)ncnc54)[C@H](O)[C@@H]3O)ccc12` [Compound 104], the figures for the IC50 in test [3], in test [4] and in test [5] (setting [6]) were 5010 nM, 15800 nM and more than 10000 nM, respectively.

Regarding `Nc1ncnn2c([C@@H]3O[C@H](CCc4ccc5cccnc5c4)[C@@H](O)[C@H]3O)ccc12` [Compound 62], the figures for the IC50 in test [3], in test [4] and in test [5] (setting [6]) were 631 nM, 794 nM and 1580 nM, respectively.

As to `COc1cnc2cc(OC[C@H]3O[C@@H](n4ccc5c(N)ncnc54)[C@H](O)[C@@H]3O)ccc2c1` [Compound 26], the IC50 in test [3] is 63.1 nM; in test [4], 200 nM; in test [5] (setting [6]), approximately 251 nM.

Turning to `Cc1cnc2cc(CC[C@H]3O[C@@H](n4ccc5c(N)ncnc54)[C@H](O)[C@@H]3O)ccc2c1` [Compound 123], the IC50 is 5.01 nM in test [3], 39.8 nM in test [4] and 31.6 nM in test [5] (setting [6]).

As for `COc1ncnc2c1ccn2[C@@H]1O[C@H](COc2ccc3cc(Br)cnc3c2)[C@@H](O)[C@H]1O` [Compound 71], the IC50 in test [3] is 3160 nM; in test [4], 2000 nM; in test [5] (setting [6]), 10000 nM.

Take `Nc1ncnc2c1ccn2[C@@H]1O[C@H](COc2ccc3ccc(NCC4CC4)nc3c2)[C@@H](O)[C@H]1O` [Compound 142]: the IC50 in test [3] is 1.26 nM; in test [4], 7.94 nM; in test [5] (setting [6]) it was 15.8 nM.

Turning to `CNc1ccc2ccc(CC[C@H]3C[C@@H](n4ccc5c(C)ncnc54)[C@H](O)[C@@H]3O)cc2n1` [Compound 176], the IC50 in test [3] is 0.501 nM; in test [4] it was 3.98 nM; in test [5] (setting [6]), 3.16 nM.

`Nc1ncnc2c1ccn2[C@@H]1O[C@H](COc2cc(C(F)(F)F)c3cccnc3c2)[C@@H](O)[C@H]1O` [Compound 37]: the IC50 in test [3] is 1000 nM; in test [4], 631 nM; in test [5] (setting [6]), 5010 nM.

Regarding `Nc1ncnc2c1ccn2[C@@H]1O[C@H](COc2cc3ncccc3cc2C(F)(F)F)[C@@H](O)[C@H]1O` [Compound 38], the IC50 was 200 nM in test [3], 398 nM in test [4] and 794 nM in test [5] (setting [6]).

With `COc1ncnc2c1ccn2[C@@H]1O[C@H](CCc2ccc3ccc(NCC4CC4)nc3c2)[C@@H](O)[C@H]1O` [Compound 191], the IC50 in test [3] was 200 nM; in test [4], 631 nM; in test [5] (setting [6]) it was 1260 nM.

With `CNc1ccc2ccc(OC[C@H]3O[C@@H](n4ccc5cncnc54)[C@H](O)[C@@H]3O)cc2n1` [Compound 174], the IC50 is 10 nM in test [3], 50.1 nM in test [4] and 126 nM in test [5] (setting [6]).

Take `Nc1ncnc2c1ccn2[C@@H]1O[C@H](CCc2ccc3cc(Cl)cnc3c2)[C@@H](O)[C@H]1O` [Compound 59]: the IC50 in test [3] is 25.1 nM; in test [4], 79.4 nM; in test [5] (setting [6]), 126 nM.

For `O[C@@H]1[C@@H](CCc2ccc3ccc(NCC4CC4)nc3c2)C[C@@H](n2ccc3cncnc32)[C@@H]1O` [Compound 166], the IC50 in test [3] is 1 nM; in test [4] it was 5.01 nM; in test [5] (setting [6]) it was 1 nM.

For `COC(=O)c1cnc2cc(OC[C@H]3O[C@@H](n4ccc5c(N)ncnc54)[C@H](O)[C@@H]3O)ccc2c1` [Compound 105], the IC50 in test [3] is 158 nM; in test [4], 1000 nM; in test [5] (setting [6]), 2510 nM.

With `CNc1ccc2ccc(CC[C@H]3C[C@@H](n4ccc5cncnc54)[C@H](O)[C@@H]3O)cc2n1` [Compound 164], the IC50 in test [3] is 0.398 nM; in test [4], 10 nM; in test [5] (setting [6]), less than 1.17 nM.

`Cc1cc2c(N)ncnc2n1[C@@H]1O[C@H](COc2ccc3cccnc3c2)[C@@H](O)[C@H]1O` [Compound 83]: the values for the IC50 in test [3], in test [4] and in test [5] (setting [6]) were 39.8 nM, 126 nM and 200 nM, respectively.

Consider `O[C@@H]1[C@@H](CCc2ccc3ccc(NCc4ccc(Cl)cc4)nc3c2)C[C@@H](n2ccc3c(Cl)ncnc32)[C@@H]1O` [Compound 114], for which the IC50 was 15.8 nM in test [3], 25.1 nM in test [4] and 12.6 nM in test [5] (setting [6]).

Take `Nc1ncnc2c1ccn2[C@@H]1O[C@H](COc2ccc3ccncc3c2)[C@@H](O)[C@H]1O` [Compound 13]: the IC50 in test [3] is 794 nM; in test [4], 2000 nM; in test [5] (setting [6]) it was 15800 nM.

On to `COCc1ccc2ccc(OC[C@H]3O[C@@H](n4ccc5c(N)ncnc54)[C@H](O)[C@@H]3O)cc2n1` [Compound 175], for which the results for the IC50 in test [3], in test [4] and in test [5] (setting [6]) were more than 10000 nM, 3160 nM and more than 10000 nM, respectively.

As for `Nc1ncnc2c1ccn2[C@@H]1C[C@H](CCc2ccc3ccc(NCc4ccc(Cl)cc4)nc3c2)[C@@H](O)[C@H]1O` [Compound 124], the IC50 in test [3] is 2 nM; in test [4], 5.01 nM; in test [5] (setting [6]) it was 0.631 nM.

`Nc1ncnc2c1ccn2[C@@H]1O[C@H](COc2ccc3ccc(O)nc3c2)[C@@H](O)[C@H]1O` [Compound 18]: the IC50 in test [3] was 79.4 nM; in test [4], 316 nM; in test [5] (setting [6]) it was approximately 10000 nM.

As to `CC(C)C(=O)O[C@@H]1[C@H](OC(=O)C(C)C)[C@@H](COc2ccc3ccc(C(F)(F)F)nc3c2)O[C@H]1n1ccc2c(N)ncnc21` [Compound 72], the IC50 in test [3] is more than 10000 nM; in test [4] it was more than 100000 nM; in test [5] (setting [6]) it was more than 10000 nM.

Consider `Nc1ncnc2c1ccn2[C@@H]1O[C@H](COc2ccc3cncnc3c2)[C@@H](O)[C@H]1O` [Compound 16], for which the results for the IC50 in test [3], in test [4] and in test [5] (setting [6]) were 251 nM, 1260 nM and 5010 nM, respectively.

`CNc1ccc2ccc(OC[C@H]3O[C@@H](n4ccc5c(N)ncnc54)[C@H](O)[C@@H]3O)cc2n1` [Compound 185]: the IC50 in test [3] is 3.98 nM; in test [4], 7.94 nM; in test [5] (setting [6]) it was 50.1 nM.

On to `CC(C)Nc1ccc2ccc(CC[C@H]3C[C@@H](n4ccc5c(N)ncnc54)[C@H](O)[C@@H]3O)cc2n1` [Compound 149], for which the IC50 is 0.316 nM in test [3], 5.01 nM in test [4] and 1 nM in test [5] (setting [7]).

Take `Nc1ncnc2c1ccn2[C@@H]1O[C@H](COc2ccc3ccc(C(F)(F)F)nc3c2)[C@@H](O)[C@H]1O` [Compound 22]: the results for the IC50 in test [3], in test [4] and in test [5] (setting [6]) were 6310 nM, 25100 nM and approximately 17800 nM, respectively.

In the case of `O[C@@H]1[C@H](O)[C@@H](CCc2ccc3ccc(NCc4ccc(Cl)cc4)nc3c2)O[C@H]1n1ccc2c(Cl)ncnc21` [Compound 127], the IC50 is 12.6 nM in test [3], 100 nM in test [4] and 126 nM in test [5] (setting [6]).

Regarding `C=C(C)c1cnc2cc(OC[C@H]3O[C@@H](n4ccc5c(N)ncnc54)[C@H](O)[C@@H]3O)ccc2c1` [Compound 212], the IC50 in test [3] is 20 nM; in test [4] it was 50.1 nM; in test [5] (setting [7]), 200 nM.

For the molecule `CNc1ccc2ccc(CC[C@H]3O[C@@H](n4ccc5cncnc54)[C@H](O)[C@@H]3O)cc2n1` [Compound 169], the IC50 is 10 nM in test [3], 63.1 nM in test [4] and 50.1 nM in test [5] (setting [6]).
